Source: patent publication US12528802B2, “Heterocyclic compound” (Takeda Pharmaceutical Company Limited, priority 2019, dated 2026)

Tests used:
[1] = system: glucosylceramide (GlcCer); test: Pharmacodynamic test using Gaucher's disease model mouse (glucosylceramide lowering effect); format: in vivo; settings: Gba D409V KI mice, two hours after last administration, ± standard deviation
Procedure: (§1) Pharmacodynamic Test Using Gaucher's Disease Model Mouse (Glucosylceramide and Glucosylsphingosine Lowering Effects)
(§2) Glucosylsphingosine (GlcSph) is known to be produced by deacylation of GlcCer and accumulated in tissues in patient with Gaucher's disease. Therefore, the GlcSph lowering effect of the compound of Example 119 due to the glucosylceramide synthase inhibitory effect was evaluated by measuring the GlcSph concentration in the tissue. For the experiment, Gba D409V KI mice, which were Gaucher's disease model mice in which GlcSph is accumulated, were purchased from Jackson Laboratory and used.
(§3) The test compound was prepared in a 0.5% methylcellulose suspension to a dose of 10 or 30 mg/kg, and orally administered. The administration was performed once a day for 2 months. Two hours after the last administration, the blood and cerebral cortex were collected, the plasma was prepared from the blood, and methanol is added to the cerebral cortex to prepare a homogenate. A mixed solution of isopropanol and ethanol was added to the obtained plasma and the methanol homogenate of the cerebral cortex, and the lipids were extracted. The GlcCer and GlcSph concentrations of the extracted samples were measured by LC/MS/MS.
(§4) The results of GlcCer were calculated from the following formula: (GlcCer concentration in the test compound administration group)/(GlcCer concentration in the 0.5% methylcellulose suspension administration group)×100. The results of GlcSph were calculated from the following formula: (GlcSph concentration in the test compound administration group)/(GlcSph concentration in the 0.5% methylcellulose suspension administration group)×100. The standard deviation values were also shown.

[2] = system: Glucosylsphingosine (GlcSph); test: Pharmacodynamic test using Gaucher's disease model mouse (glucosylsphingosine lowering effect); format: in vivo; settings: Gba D409V KI mice, two hours after last administration, ± standard deviation
Procedure: as §1, §2, §3, §4

[3] = biological target: T1, glucosylceramide synthase (Homo sapiens, UniProt Q16739); test: Glucosylceramide synthase (GCS) enzyme assay, microsome fraction, C8 glucosylceramide quantified by Rapidfire MS/MS; format: biochemical; settings: test compound 10 μM; 1.7 μM UDP-glucose, 3 μM C8 ceramide; room temperature 60 min; read-out: GCS enzyme inhibitory rate at 10 μM (%) (% of control)
T1 construct: made in house; host or cells: Expi293F cells (transient expression, pcDNA3.3-TOPO vector); microsome fraction used as enzyme source
T1 sequence (Q16739 1-394): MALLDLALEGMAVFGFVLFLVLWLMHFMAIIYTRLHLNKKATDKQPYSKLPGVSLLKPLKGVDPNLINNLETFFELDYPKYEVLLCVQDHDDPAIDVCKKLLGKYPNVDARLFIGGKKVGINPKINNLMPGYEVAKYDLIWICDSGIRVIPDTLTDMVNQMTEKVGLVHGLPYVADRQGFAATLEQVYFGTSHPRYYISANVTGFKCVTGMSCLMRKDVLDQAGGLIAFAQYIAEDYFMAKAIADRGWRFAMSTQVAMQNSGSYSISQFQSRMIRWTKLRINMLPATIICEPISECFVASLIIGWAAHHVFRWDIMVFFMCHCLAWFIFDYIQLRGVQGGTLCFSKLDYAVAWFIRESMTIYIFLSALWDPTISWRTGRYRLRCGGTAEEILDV
Procedure, shortened: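 Test compound, 10 μM final, was run against human GCS from transfected Expi293F microsome fractions, using substrate solution of 6 μM C8 ceramide (in DOPC liposomes) plus 3.4 μM UDP-glucose, pH 7.5 Tris buffer, 60 min, room temperature. Product C8 glucosylceramide measured by Rapidfire MS/MS against an internal standard, % inhibition referenced to no-enzyme and DMSO wells.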

[4] = system: glucosylceramide (GlcCer); test: Pharmacodynamic test using mouse (glucosylceramide lowering effect); format: in vivo; settings: C57BL/6J mice, 10 mg/kg oral, six hours after administration, ± standard deviation
Procedure: Pharmacodynamic Test Using Mouse (Glucosylceramide Lowering Effect)
For the experiment, C57BL/6J mice were purchased from CLEA Japan, Inc. and used. Glucosylceramide synthase is an enzyme that synthesizes glucosylceramide (GlcCer) from uridine diphosphate glucose and ceramide. Therefore, the glucosylceramide synthase inhibitory effect of the compound of Example 119 was evaluated by measuring the GlcCer concentration in the tissue.
as §3, with “10” for “10 or 30”, “Six” for “The administration was performed once a day for 2 months. Two”, “the” for “the last”, “GlcCer” for “GlcCer and GlcSph”
The results were calculated from the following formula: (GlcCer concentration in the test compound administration group)/(GlcCer concentration in the 0.5% methylcellulose suspension administration group)×100.
The standard deviation values were also shown.

[5] = 10 mg/kg oral once a day for 2 months, cerebral cortex
[6] = 10 mg/kg oral once a day for 2 months, plasma
[7] = 30 mg/kg oral once a day for 2 months, cerebral cortex
[8] = 30 mg/kg oral once a day for 2 months, plasma

| Structure (SMILES) | inhibition at 10 µM [3] [%] | other results |
| --- | --- | --- |
| CC(C)(O)c1ccc(N2Cc3c(ccnc3-c3ccc(F)cc3OCC(F)(F)F)C2=O)cc1 [Example 119, 4-[4-fluoro-2-(2,2,2-trifluoroethoxy)phenyl]-2-[4-(2-hydroxypropan-2-yl)phenyl]-2,3-dihydro-1H-pyrrolo[3,4-c]pyridin-1-one] | 100 | GlcCer (% Control) cerebral cortex (10 mg/kg) [1, 5]: 58 ± 6 % Control; GlcCer (% Control) Plasma (10 mg/kg) [1, 6]: 40 ± 10 % Control; GlcCer (% Control) cerebral cortex (30 mg/kg) [1, 7]: 40 ± 7 % Control; GlcCer (% Control) Plasma (30 mg/kg) [1, 8]: 21 ± 4 % Control; GlcSph (% Control) cerebral cortex (10 mg/kg) [2, 5]: 73 ± 27 % Control; GlcSph (% Control) Plasma (10 mg/kg) [2, 6]: 58 ± 16 % Control; GlcSph (% Control) cerebral cortex (30 mg/kg) [2, 7]: 61 ± 20 % Control; GlcSph (% Control) Plasma (30 mg/kg) [2, 8]: 36 ± 9 % Control; GlcCer (% Control) cerebral cortex ([4]; cerebral cortex): 52 ± 7 % Control; GlcCer (% Control) plasma ([4]; plasma): 49 ± 14 % Control |
| Cc1cc2c(c(-c3ccccc3OCC(F)(F)F)n1)CN(c1ccc(OCC(C)(C)O)nc1)C2=O [Example 367, 2-[6-(2-hydroxy-2-methylpropoxy)pyridin-3-yl]-6-methyl-4-[2-(2,2,2-trifluoroethoxy)phenyl]-2,3-dihydro-1H-pyrrolo[3,4-c] pyridin-1-one] | 99 |  |
| CC(C)(O)c1ccc(N2Cc3c(cn(C(F)F)c(=O)c3-c3ccccc3OCC(F)(F)F)C2=O)cc1 [Example 368, 5-(difluoromethyl)-2-[4-(2-hydroxypropan-2-yl)phenyl]-7-[2-(2,2,2-trifluoroethoxy)phenyl]-1H-pyrrolo[3,4-c]pyridine-3,6(2H,5H)-dione] | 100 |  |
| CC(C)(O)COc1ccc(N2Cc3c(cn(C(F)F)c(=O)c3-c3ccccc3OCC(F)(F)F)C2=O)cc1 [Example 369, 5-(difluoromethyl)-2-[4-(2-hydroxy-2-methylpropoxy)phenyl]-7-[2-(2,2,2-trifluoroethoxy)phenyl]-1H-pyrrolo[3,4-c]pyridine-3,6(2H,5H)-dione] | 100 |  |
| CC(C)(O)c1ccc(N2Cc3c(cn(C4CC4)c(=O)c3-c3ccccc3OCC(F)(F)F)C2=O)cc1 [Example 371, 5-cyclopropyl-2-[4-(2-hydroxypropan-2-yl)phenyl]-7-[2-(2,2,2-trifluoroethoxy)phenyl]-1H-pyrrolo[3,4-c]pyridine-3,6(2H,5H)-dione] | 100 |  |
| CC(C)(O)COc1ccc(N2Cc3c(cn(C4CC4)c(=O)c3-c3ccccc3OCC(F)(F)F)C2=O)cc1 [Example 372, 5-cyclopropyl-2-[4-(2-hydroxy-2-methylpropoxy)phenyl]-7-[2-(2,2,2-trifluoroethoxy)phenyl]-1H-pyrrolo[3,4-c]pyridine-3,6(2H,5H)-dione] | 100 |  |
| Cc1cc2c(c(-c3ccccc3OCC(F)(F)F)n1)CN(c1ccc(OCC3(O)CC3)cc1)C2=O [Example 375, 2-{4-[(1-hydroxycyclopropyl)methoxy]phenyl}-6-methyl-4-[2-(2,2,2-trifluoroethoxy)phenyl]-2,3-dihydro-1H-pyrrolo[3,4-c]pyridin-1-one] | 100 |  |
| CC(C)n1cc2c(c(-c3ccccc3OCC(F)(F)F)c1=O)CN(c1ccc(C(C)(C)O)cc1)C2=O [Example 376, 2-[4-(2-hydroxypropan-2-yl)phenyl]-5-(propan-2-yl)-7-[2-(2,2,2-trifluoroethoxy)phenyl]-1H-pyrrolo[3,4-c]pyridine-3,6(2H,5H)-dione] | 100 |  |
| CC(C)n1cc2c(c(-c3ccccc3OCC(F)(F)F)c1=O)CN(c1ccc(OCC(C)(C)O)cc1)C2=O [Example 377, 2-[4-(2-hydroxy-2-methylpropoxy)phenyl]-5-(propan-2-yl)-7-[2-(2,2,2-trifluoroethoxy)phenyl]-1H-pyrrolo[3,4-c]pyridine-3,6(2H,5H)-dione] | 100 |  |
| CC(C)(O)c1ccc(N2Cc3c(cc(C4CCOCC4)nc3-c3ccccc3OCC(F)(F)F)C2=O)cc1 [Example 379, 2-[4-(2-hydroxypropan-2-yl)phenyl]-6-(oxan-4-yl)-4-[2-(2,2,2-trifluoroethoxy)phenyl]-2,3-dihydro-1H-pyrrolo[3,4-c]pyridin-1-one] | 101 |  |
| O=C1c2cc(C3CCCCC3)nc(-c3ccc(F)cc3OCC(F)(F)F)c2CN1c1ccc(F)cc1 [Example 381, 6-cyclohexyl-2-(4-fluorophenyl)-4-[4-fluoro-2-(2,2,2-trifluoroethoxy)phenyl]-2,3-dihydro-1H-pyrrolo [3,4-c]pyridin-1-one] | 95 |  |
| O=C1c2cc(C3CCOCC3)nc(-c3ccc(F)cc3OCC(F)(F)F)c2CN1c1ccc(F)cc1 [Example 382, 2-(4-fluorophenyl)-4-[4-fluoro-2-(2,2,2-trifluoroethoxy)phenyl]-6-(oxan-4-yl)-2,3-dihydro-1H-pyrrolo [3,4-c]pyridin-1-one] | 97 |  |
| CC(C)(O)c1ccc(N2Cc3c(cc(C(C)(C)F)nc3-c3ccccc3OCC(F)(F)F)C2=O)cc1 [Example 384, 6-(2-fluoropropan-2-yl)-2-[4-(2-hydroxypropan-2-yl)phenyl]-4-[2-(2,2,2-trifluoroethoxy)phenyl]-2,3-dihydro-1H-pyrrolo[3,4-c]pyridin-1-one] | 100 |  |
| CC(C)(F)c1cc2c(c(-c3ccc(F)cc3OCC(F)(F)F)n1)CN(c1ccc(F)cc1)C2=O [Example 385, 2-(4-fluorophenyl)-6-(2-fluoropropan-2-yl)-4-[4-fluoro-2-(2,2,2-trifluoroethoxy)phenyl]-2,3-dihydro-1H-pyrrolo[3,4-c]pyridin-1-one] | 99 |  |
| CC(C)(C)c1cc2c(c(-c3ccccc3OCC(F)(F)F)n1)CN(c1ccc(C(C)(C)O)cc1)C2=O [Example 389, 6-tert-butyl-2-[4-(2-hydroxypropan-2-yl)phenyl]-4-[2-(2,2,2-trifluoroethoxy)phenyl]-2,3-dihydro-1H-pyrrolo[3,4-c]pyridin-1-one] | 100 |  |
